Results reported in patent publication US11427869B2, “T cell balance gene expression, compositions of matters and methods of use thereof” (THE BROAD INSTITUTE, INC., priority 2015, dated 2022).

Columns and labels:
[1] = mice fed with a diet rich in PUFA (Monk et al., 2012, 2013); cited from earlier work
Th17 cells [2] = assay: qPCR of gene expression (cyp51, sc4mol, pathogenicity signature) in Th17 cells with exogenous fatty acid; format: cell-based, mouse
Th17 cells [3] = assay: Flow cytometry and intracellular cytokine staining of T cells; format: cell-based, mouse
Protocol: WT, CD5L−/− and Rorγt−/− Th17 cells were differentiated with TGF-1+IL-6 for 96h. […] Three independent experiments were performed. […] (FIG. 18E) Naïve WT T cells were activated without polarizing cytokines (Th0) and infected with retrovirus expressing Rorγt in the presence of control-RV or CD5L-RV with or without FF-MAS (5 uM) as a source of Rorγt ligand. Each dot represents an independent infection. (FIG. 18F) WT or CD5L−/− naïve cells were differentiated with TGF-β1+IL-6. At 48h, cells were replated in fresh media with either control or FF-MAS (5 uM) as a source of Rorγt ligand. Cells were harvested for FACS analysis 72h later.
T cell differentiation culture. Naïve CD4+CD44−CD62L+CD25− T cells or Effector memory CD4+CD44+CD62L− were sorted using BD FACSAria sorter and activated with plate-bound anti-CD3 and anti-CD28 antibodies (both at 2 μg/ml) in the presence of cytokines at a concentration of 2.5×10^5 cells/ml. For Th17 differentiation: 2 ng/ml of rhTGFβ1, 2 ng/ml of rhTGFβ3, 25 ng/ml rmIL-6, 20 ng/ml rmIL-18 (all from Miltenyi Biotec) and 20 ng/ml rmIL-23 (R & D systems) were used at various combinations as specified in figures. For Th1 differentiation, 20 ng/ml rmIL-12 (R & D systems); for Th2 differentiation 20 ng/ml rmIL-4 (Miltenyi Biotec); for iTreg differentiation, 2.5 ng/ml of rhTGFβ1 were used (Miltenyi Biotec). For differentiation experiments, cells were harvested at 48 hours. For restimulation experiments, cells were differentiated for 48 hours and resuspended in fresh media with no additional cytokines for 48-72 hours. Cells were re-stimulated with PMA/ionomycin for four hours before analysis for cytokines by intracellular cytokine staining. For experiments with exogenous fatty acid, fatty acids were purchased and resuspended first with serum-free media containing BSA prior being added to culture.
Flow cytometry and intracellular cytokine staining. Sorted naïve T cells were stimulated with phorbol 12-myristate 13-acetate (PMA) (50 ng/ml, Sigma-aldrich), ionomycin (1 μg/ml, Sigma-aldrich) and a protein transport inhibitor containing monensin (Golgistop) (BD Biosciences) for 4 h before detection by staining with antibodies.

[4] = Th17 cells differentiated with TGF-β1+IL-6

Which “severity of chronic colitis and Th17 cell polarization” value [1] does the source give for CCCCC/C=C\C/C=C\C/C=C\C/C=C\CCCC(=O)O [PUFA, arachidonic acid] here?
The value was “reduced severity of chronic colitis and Th17 cell polarization”.

And the “expression of cyp51 and sc4mol mRNA” value (Th17 cells [2]; CD5L−/− Th17 cells (TGF-β1+IL-6), fatty acid 25 uM added at 48h, analyzed at 96h)?
The value was “abolished the increased expression of the enzymes”.

And the “Il22 expression (qPCR)” value (Th17 cells [2]; [4])?
The value was “increased”.

What about the “effector molecule expression of the pathogenicity signature (Il10, Il23r, Ccl5, Csf2, Lag3; qPCR)” value (Th17 cells [2]; [4]) of the same compound?
The value was “reciprocally regulated”.

And the “percentage of IL-17+CD4+ T cells” value (Th17 cells [3]; CD5L−/− Th17 cells differentiated with TGF-β1+IL-6)?
The value was “reduced percentage of IL-17+CD4+ T cells”.

What about the “IL-17 and IL-23R expression” value (Th17 cells [3]; WT Th17 cells differentiated with TGF-β1+IL-6 and expanded using IL-23 with fatty acid) of the same compound?
Its value is “suppressed IL-17 and IL-23R expression”.
